Source: paper PMC8131206 (Nature biomedical engineering, 2021)
Where no end group is shown, it is not given here.

What was measured:
Mtb = type: cell-based, Mycobacterium tuberculosis
S. aureus (MR) USA300 = details: USA300, 24 h
[1] = system: M. tuberculosis H37Rv (virulent); details: 96 h
M. smegmatis Mc^2 155 = details: Mc^2 155, 48 h
S. aureus (MS) NRS72 = details: MS) NRS72, 24 h
H. influenzae TD-4 = details: TD-4, 24 h
[2] = biological target: the molecule itself; assay: negative-stain TEM + circular dichroism

## COc1c(N2C[C@@H]3CCCN[C@@H]3C2)c(F)cc2c(=O)c(C(=O)O)cn(C3CC3)c12 [moxifloxacin]
Mtb
  Combinatorial effect with MAD1 (FIC): synergizes

## KRWHWWRRHWVVW-NH2 [MAD1]
S. aureus (MR) USA300
  MIC: >80 (20) µM
[1]
  MIC: 5 µM
M. smegmatis Mc^2 155
  MIC: 5(5) µM
S. aureus (MS) NRS72
  MIC: >80 (20) µM
H. influenzae TD-4
  MIC: 80 (20) µM

## KRWHWWRRHWVVW-NH2 [myco-membrane associated disruption 1 (MAD1) peptide]
[2]
  binding result: binds
